According to ChEMBL document CHEMBL1201862, “PubChem BioAssay data set” (2004):
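Cells were grown in 96-well plates and exposed to each compound for 48 hours at five concentrations; endpoints were interpolated linearly between bracketing concentrations, or set to the highest concentration if not reached. GI50 = concentration required for 50% inhibition of growth.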 The source made the active and inactive calls. Cut-off read from the data, not from the text of the source: active = GI50 up to about 1.1 µM and inactive = higher.

Legend:
Assay in all cases: growth of human tumour cells (NCI), 48 h
OVCAR-5 = tested on: OVCAR-5
HL-60 = tested on: HL-60
ACHN = tested on: ACHN
SK-MEL-5 = tested on: SK-MEL-5
OVCAR-8 = tested on: OVCAR-8
KM12 = tested on: KM12
U-251 = tested on: U-251
TK-10 = tested on: TK-10
UO-31 = tested on: UO-31
SR = tested on: SR
HOP-62 = tested on: HOP-62
M14 = tested on: M14
RPMI-8226 = tested on: RPMI-8226
786-0 = tested on: 786-0
OVCAR-3 = tested on: OVCAR-3
SK-MEL-2 = tested on: SK-MEL-2
SK-MEL-28 = tested on: SK-MEL-28
NCI-H226 = tested on: NCI-H226

Measured: GI50

Oc1ncnc2c1CCCN2
inactive: OVCAR-5 > 100 µM | HL-60 > 100 µM | ACHN > 100 µM | SK-MEL-5 > 100 µM | OVCAR-8 > 100 µM | KM12 > 100 µM | U-251 > 100 µM | TK-10 > 100 µM | UO-31 > 100 µM | SR > 100 µM | HOP-62 > 100 µM | M14 > 100 µM | RPMI-8226 > 100 µM | 786-0 > 100 µM | OVCAR-3 > 100 µM | SK-MEL-2 > 100 µM | SK-MEL-28 > 100 µM

NNC(=S)N/N=C(\c1nc2ccc(Cl)cc2nc1O)C(O)c1ccc(Cl)cc1Cl (centres undefined)
inactive: OVCAR-5 > 100 µM | HL-60 > 100 µM | ACHN > 100 µM | SK-MEL-5 > 100 µM | OVCAR-8 > 100 µM | KM12 > 100 µM | U-251 > 100 µM | TK-10 > 100 µM | NCI-H226 > 100 µM | UO-31 > 100 µM | SR > 100 µM | HOP-62 > 100 µM | M14 > 100 µM | RPMI-8226 > 100 µM | 786-0 > 100 µM | SK-MEL-2 > 100 µM | SK-MEL-28 > 100 µM

O=C(O)CN(c1ccc(Cl)cc1)S(=O)(=O)c1ccccc1
inactive: OVCAR-5 > 100 µM | HL-60 > 100 µM | ACHN > 100 µM | SK-MEL-5 > 100 µM | OVCAR-8 > 100 µM | KM12 > 100 µM | U-251 > 100 µM | TK-10 > 100 µM | NCI-H226 > 100 µM | UO-31 > 100 µM | M14 > 100 µM | RPMI-8226 > 100 µM | 786-0 > 100 µM | OVCAR-3 > 100 µM | SK-MEL-2 > 100 µM | SK-MEL-28 > 100 µM

CN1CC(=O)N(C)c2ncn(Cc3ccccc3)c2C1=O
inactive: HL-60 > 100 µM | ACHN > 100 µM | SK-MEL-5 > 100 µM | OVCAR-8 > 100 µM | KM12 > 100 µM | U-251 > 100 µM | TK-10 > 100 µM | UO-31 > 100 µM | SR > 100 µM | M14 > 100 µM | RPMI-8226 > 100 µM | 786-0 > 100 µM | OVCAR-3 > 100 µM | SK-MEL-28 > 100 µM

COC(=O)C(=O)C(C(=O)C1=NS(=O)(=O)c2cc(S(N)(=O)=O)c(Cl)cc2N1)c1nc2ccc(C(=O)c3ccccc3)cc2nc1O (centres undefined)
inactive: OVCAR-5 58.7 µM | ACHN > 100 µM | SK-MEL-5 40.2 µM | OVCAR-8 59 µM | KM12 67.6 µM | U-251 > 100 µM | TK-10 > 100 µM | NCI-H226 > 100 µM | UO-31 79.4 µM | SR 47.9 µM | M14 > 100 µM | RPMI-8226 > 100 µM | 786-0 > 100 µM | SK-MEL-2 > 100 µM | SK-MEL-28 > 100 µM

Cc1ccc(Nc2ccc(Nc3ccc(C)cc3)c3c2C(=O)c2c(O)ccc(O)c2C3=O)cc1
inactive: OVCAR-5 > 100 µM | HL-60 80.9 µM | ACHN > 100 µM | SK-MEL-5 > 100 µM | OVCAR-8 > 100 µM | KM12 > 100 µM | U-251 > 100 µM | TK-10 > 100 µM | UO-31 > 100 µM | HOP-62 > 100 µM | M14 > 100 µM | RPMI-8226 > 100 µM | 786-0 > 100 µM | OVCAR-3 70.5 µM | SK-MEL-2 > 100 µM | SK-MEL-28 91.4 µM

COC(=O)C1C(O)CC(c2ccccn2)N(Cc2ccccc2)C1c1ccccn1 (centres undefined)
inactive: OVCAR-5 > 100 µM | HL-60 15.6 µM | ACHN > 100 µM | SK-MEL-5 84.3 µM | OVCAR-8 > 100 µM | KM12 > 100 µM | U-251 > 100 µM | TK-10 > 100 µM | NCI-H226 > 100 µM | UO-31 > 100 µM | HOP-62 > 100 µM | M14 > 100 µM | RPMI-8226 23.4 µM | 786-0 > 100 µM | OVCAR-3 > 100 µM | SK-MEL-2 > 100 µM | SK-MEL-28 > 100 µM

CC1=C(C(=O)Nc2cccc(C(F)(F)F)c2)C(c2ccccc2F)C(C(=O)Nc2cccc(C(F)(F)F)c2)=C(C)N1
inactive: OVCAR-5 10.5 µM | HL-60 2.69 µM | ACHN 4.2 µM | SK-MEL-5 5.43 µM | OVCAR-8 9.62 µM | KM12 3.74 µM | U-251 8.69 µM | TK-10 8.26 µM | NCI-H226 4.38 µM | UO-31 4.83 µM | HOP-62 12.9 µM | M14 4.59 µM | RPMI-8226 2.58 µM | 786-0 6.49 µM | OVCAR-3 4.66 µM | SK-MEL-2 3.03 µM | SK-MEL-28 11 µM
